30 compounds from ChEMBL document CHEMBL3272224, “Synthesis and hypotensive activity of N-alkyl-N"-cyano-N'-pyridylguanidines” (J Med Chem, 1978) can be followed below.

Test system in the first data set: not listed separately
The experiment in a line: Toxicity in po dosed mouse assessed as mortality after 7 days. The following applies: in vivo.
For `CCC(C)(C)N/C(=N\C#N)Nc1cc(-c2ccc(Cl)cc2)nn1C`, the LD50 at 168 h is over 1000 mg/kg.

Turning to `CC(C)C/N=C(\NC#N)Nc1cccnc1`, the LD50 at 168 h is over 1000 mg/kg.

Regarding `CCC(C)(C)N/C(=N\C#N)Nc1c(C)cccc1C`, the LD50 at 168 h is over 1000 mg/kg.

Take `CCC(C)(C)N/C(=N\C#N)Nc1ccc(OC)cc1`: the LD50 at 168 h was over 1000 mg/kg.

Take `CCC(C)C(C)/N=C(\NC#N)Nc1ccncc1` (stereo not given): the LD50 at 168 h worked out at 250 mg/kg.

In the case of `CCC(C)(C)/N=C(\NC#N)Nc1c(C)cc(C)nc1C`, the median lethal dose (LD50) at 168 h was 800 mg/kg.

In the case of `CCC(/N=C(\NC#N)Nc1ccncc1)C(C)C` (stereo not given), the LD50 at 168 h was found to be 600 mg/kg.

As for `CC(C)(C)C/N=C(/NC#N)Nc1cccnc1`, the 50% lethal dose (LD50) at 168 h was over 1000 mg/kg.

With `CCn1nc(C)cc1N/C(=N/C#N)NC(C)(C)C`, the LD50 at 168 h is over 1000 mg/kg.

Regarding `CC(C)(C)C(C)(C)/N=C(\NC#N)Nc1cccnc1`, the LD50 at 168 h was over 1000 mg/kg.

In the case of `CCC(CC)(CC)/N=C(\NC#N)Nc1ccncc1`, the LD50 at 168 h was over 1000 mg/kg.

Turning to `Cc1noc(C)c1N/C(=N/C#N)NC(C)C(C)(C)C` (stereo not given), the LD50 at 168 h is over 1000 mg/kg.

Turning to `CCC(C)(C)N/C(=N\C#N)NCCCN(C)C`, the median lethal dose (LD50) at 168 h is over 1000 mg/kg.

As for `Cc1nn(C)c(C)c1N/C(=N/C#N)NC(C)(C)C`, the median lethal dose (LD50) at 168 h was over 1000 mg/kg.

For `CCC(C)(C)N/C(=N\C(N)=O)Nc1cccnc1`, the LD50 at 168 h was over 1000 mg/kg.

`CC(C)C(=O)N(/C(=N\C#N)Nc1cccnc1)C(C)(C)C`: the LD50 at 168 h was over 1000 mg/kg.

Regarding `CC(C)CC(C)(C)/N=C(\NC#N)Nc1cccnc1`, the LD50 at 168 h is over 1000 mg/kg.

Regarding `CC(C)(C)N/C(=N\C#N)NCc1cccnc1`, the LD50 at 168 h was over 1000 mg/kg.

For the compound `CCC(C)(C)N/C(=N\C#N)NCc1ccncc1.O`, the LD50 at 168 h was over 1000 mg/kg.

`CCC(C)(C)N/C(N)=N/C#N` [GUANCYDINE]: the LD50 at 168 h turned out to be 800 mg/kg.

As for `N#CNC(=N)Nc1cccnc1`, the LD50 at 168 h was over 1000 mg/kg.

Regarding `CCCCCCC/N=C(\NC#N)Nc1cccnc1`, the LD50 at 168 h was over 1000 mg/kg.

As to `N#CN/C(=N\Cc1ccco1)Nc1cccnc1`, the LD50 at 168 h was over 1000 mg/kg.

As for `N#CN/C(=N\C1CCCCCCC1)Nc1ccncc1`, the LD50 at 168 h amounted to 600 mg/kg.

Take `CCN(CC)CC/N=C(\NC#N)Nc1cccnc1`: the LD50 at 168 h amounted to 250 mg/kg.

For `CCC(C)(C)N/C(=N\C(=O)C(F)(F)F)Nc1cccnc1`, the LD50 at 168 h was over 1000 mg/kg.

As for `CC(C)(C)CC(C)(C)/N=C(\NC#N)Nc1cccnc1`, the LD50 at 168 h was over 1000 mg/kg.

With `CC(N/C(=N\C#N)NCc1ccncc1)C(C)(C)C` (stereo not given), the LD50 at 168 h is over 1000 mg/kg.

As for `CCC(C)(C)N/C(=N\C#N)Nc1cc(C)nc2ccccc12`, the LD50 at 168 h is over 1000 mg/kg.

For the compound `N#CN/C(=N\CCc1ccccc1)Nc1ccncc1`, the LD50 at 168 h is over 1000 mg/kg.

A further data set has as its system Rattus norvegicus. Description: Hypotensive activity in po dosed spontaneously hypertensive Wistar-Okamoto rat assessed as dose required to cause 30 mmHg fall of blood pressure administered for 5 days. The class given is functional. To be noted: 120 h, read-out: MED.
As to `CCC(C)(C)N/C(=N\C#N)Nc1cc(-c2ccc(Cl)cc2)nn1C`, the minimal effective dose turned out to be 50 mg/kg.

With `CC(C)C/N=C(\NC#N)Nc1cccnc1`, the minimal effective dose amounted to 20 mg/kg.

Consider `CCC(C)(C)N/C(=N\C#N)Nc1c(C)cccc1C`, for which the minimal effective dose was 50 mg/kg.

Consider `CCC(C)(C)N/C(=N\C#N)Nc1ccc(OC)cc1`, for which the minimal effective dose turned out to be 50 mg/kg.

For `CCC(C)C(C)/N=C(\NC#N)Nc1ccncc1` (stereo not given), the minimal effective dose came to 8 mg/kg.

Turning to `CCC(C)(C)/N=C(\NC#N)Nc1c(C)cc(C)nc1C`, the minimal effective dose was over 25 mg/kg.

In the case of `CCC(/N=C(\NC#N)Nc1ccncc1)C(C)C` (stereo not given), the minimal effective dose is 5 mg/kg.

Regarding `CC(C)(C)C/N=C(/NC#N)Nc1cccnc1`, the minimal effective dose came to 2.5 mg/kg.

Consider `CCn1nc(C)cc1N/C(=N/C#N)NC(C)(C)C`, for which the minimal effective dose stood at 10 mg/kg.

Take `CC(C)(C)C(C)(C)/N=C(\NC#N)Nc1cccnc1`: the minimal effective dose turned out to be 50 mg/kg.

As for `CCC(CC)(CC)/N=C(\NC#N)Nc1ccncc1`, the minimal effective dose was 2.5 mg/kg.

As to `Cc1noc(C)c1N/C(=N/C#N)NC(C)C(C)(C)C` (stereo not given), the minimal effective dose stood at 20 mg/kg.

As for `CCC(C)(C)N/C(=N\C#N)NCCCN(C)C`, the minimal effective dose worked out at 25 mg/kg.

As for `Cc1nn(C)c(C)c1N/C(=N/C#N)NC(C)(C)C`, the minimal effective dose is 5 mg/kg.

For the compound `CCC(C)(C)N/C(=N\C(N)=O)Nc1cccnc1`, the minimal effective dose was over 50 mg/kg.

With `CC(C)C(=O)N(/C(=N\C#N)Nc1cccnc1)C(C)(C)C`, the minimal effective dose is 10 mg/kg.

Take `CC(C)CC(C)(C)/N=C(\NC#N)Nc1cccnc1`: the minimal effective dose was 2.5 mg/kg.

In the case of `CC(C)(C)N/C(=N\C#N)NCc1cccnc1`, the minimal effective dose amounted to 2.5 mg/kg.

Regarding `CCC(C)(C)N/C(=N\C#N)NCc1ccncc1.O`, the minimal effective dose stood at 20 mg/kg.

Consider `CCC(C)(C)N/C(N)=N/C#N` [GUANCYDINE], for which the minimal effective dose was 15 mg/kg.

In the case of `N#CNC(=N)Nc1cccnc1`, the minimal effective dose worked out at 50 mg/kg.

For `CCCCCCC/N=C(\NC#N)Nc1cccnc1`, the minimal effective dose is over 50 mg/kg.

In the case of `N#CN/C(=N\Cc1ccco1)Nc1cccnc1`, the minimal effective dose worked out at 20 mg/kg.

Regarding `N#CN/C(=N\C1CCCCCCC1)Nc1ccncc1`, the minimal effective dose was over 20 mg/kg.

Take `CCN(CC)CC/N=C(\NC#N)Nc1cccnc1`: the minimal effective dose is over 8 mg/kg.

As to `CCC(C)(C)N/C(=N\C(=O)C(F)(F)F)Nc1cccnc1`, the minimal effective dose is over 50 mg/kg.

As to `CC(C)(C)CC(C)(C)/N=C(\NC#N)Nc1cccnc1`, the minimal effective dose was found to be 50 mg/kg.

For `CC(N/C(=N\C#N)NCc1ccncc1)C(C)(C)C` (stereo not given), the minimal effective dose was 20 mg/kg.

Take `CCC(C)(C)N/C(=N\C#N)Nc1cc(C)nc2ccccc12`: the minimal effective dose worked out at 10 mg/kg.

Take `N#CN/C(=N\CCc1ccccc1)Nc1ccncc1`: the minimal effective dose is 20 mg/kg.
